From patent publication EP3046573B1, “AMYLIN ANALOGUES” (Zealand Pharma A/S, priority 2013, dated 2015)
Numbered stars: 1 amine (or outer) side, 2 acyl side, 3 side chain; on linkers, the order of the positions; unused ones are H or OH. Bridge positions count the residues as written; N and C are the ends. Square brackets hold non-standard residues; d marks the D form. Peptide text beside a SMILES is read from it. * marks the point of attachment. C20 diacid = O=C(O)CCCCCCCCCCCCCCCCCCC(=O)*; γGlu = O=C(O)[C@H](CCC(=O)[*:2])N[*:1]; NMeI = CC[C@H](C)[C@H](NC)C(=O)O; Sar = CNCC(=O)O

Legend:
[1] = target: T1, human amylin receptor 3 (hAMYR3) consisting of hCTR2 co-expressed with human Receptor Activity Modifying Protein 3 (hRAMP3) (Homo sapiens, UniProt O60896+P30988); assay: hAMYR3 assay: induction of cAMP (AlphaScreen cAMP Assay kit) in COS7 cells expressing hAMYR3; format: cell-based; conditions: cAMP induction in COS7 cells expressing hAMYR3; average of a minimum of 3 determinations; read-out: hAMY R3 EC50
T1 construct: expressed in transfected cells
T1 sequence (P30988 25-474): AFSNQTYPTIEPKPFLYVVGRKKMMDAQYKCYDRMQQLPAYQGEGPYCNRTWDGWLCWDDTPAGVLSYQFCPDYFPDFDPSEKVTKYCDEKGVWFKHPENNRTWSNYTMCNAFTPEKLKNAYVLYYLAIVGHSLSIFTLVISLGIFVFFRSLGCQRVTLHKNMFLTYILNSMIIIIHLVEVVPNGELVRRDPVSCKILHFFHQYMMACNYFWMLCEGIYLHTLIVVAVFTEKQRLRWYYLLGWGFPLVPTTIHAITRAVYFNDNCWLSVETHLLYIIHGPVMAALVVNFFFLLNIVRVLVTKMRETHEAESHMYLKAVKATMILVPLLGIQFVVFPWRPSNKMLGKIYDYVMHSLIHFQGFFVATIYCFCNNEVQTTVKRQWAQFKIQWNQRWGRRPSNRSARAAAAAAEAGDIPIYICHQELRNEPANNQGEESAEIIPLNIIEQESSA
T1 sequence (O60896 24-148 partner): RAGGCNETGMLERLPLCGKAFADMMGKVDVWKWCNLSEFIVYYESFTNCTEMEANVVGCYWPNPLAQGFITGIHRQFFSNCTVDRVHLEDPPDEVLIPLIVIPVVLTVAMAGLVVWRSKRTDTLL
Summary of the method: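 cAMP accumulation read by AlphaScreen in lysates of RAMP-naive COS7 cells stably transfected with hCTR2 plus hRAMP3. Cells exposed to peptide dilutions for 15 min, 37° C, with 100 µM IBMX; 4PL fitting gave EC50 and efficacy relative to pramlintide.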

[2] = target: T2, human calcitonin receptor (hCTR2) (Homo sapiens, UniProt P30988); assay: hCTR2 assay: induction of cAMP (AlphaScreen cAMP Assay kit) in COS7 cells expressing hCTR2; format: cell-based; conditions: cAMP induction in COS7 cells expressing hCTR2; average of a minimum of 3 determinations; read-out: hCTR2 EC50
T2 construct: expressed in transfected cells
T2 sequence (P30988 25-474): T1 sequence (P30988 25-474)
Summary of the method: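 cAMP read-out by AlphaScreen after cell lysis; EC50 and % efficacy vs pramlintide from 4-parameter logistic fitting. Agonist stimulation: hCTR2-COS7 stable cells, 15 min, 37° C, 100 µM IBMX, 0.1% casein, Tyrode/HEPES pH 7.4.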

[3] = Solubility assessment (turbidity absorbance at 325 nm); format: physicochemical; conditions: stock 2 mg/ml diluted 1:1, ambient temperature (typically 25°C), n=1; for Solubility, Acetate buffer pH 4: 100 mM acetate buffer pH 4.0; for Solubility, Acetate buffer pH 5: 100 mM acetate buffer pH 5.0; for Solubility, Histidine buffer pH 6: 100 mM histidine buffer pH 6.0; for Solubility, Histidine buffer pH 7: 100 mM histidine buffer pH 7.0; for Solubility, Phosphate buffer pH 6: 100 mM phosphate buffer pH 6.0; for Solubility, Phosphate buffer pH 7: 100 mM phosphate buffer pH 7.0; for Solubility, Phosphate buffer pH 7.5: 100 mM phosphate buffer pH7.5
Summary of the method: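 Read-out: turbidity as absorbance at 325 nm (280 nm also read), single samples, ambient temperature of typically 25°C. Samples were a 1:1 mix of 2 mg/ml stock (water, pH 2.5) with 100 mM acetate, histidine or phosphate buffers spanning pH 4.0–7.5. Cut-off: A325 ≤ 0.02 indicates ≥ 1 mg/ml.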

Structure (SMILES) | EC50 [1] [nM] | EC50 [2] [nM] | Solubility, Acetate buffer pH 4 [3] | Solubility, Acetate buffer pH 5 [3] | Solubility, Histidine buffer pH 6 [3] | Solubility, Histidine buffer pH 7 [3] | Solubility, Phosphate buffer pH 6 [3] | Solubility, Phosphate buffer pH 7 [3] | Solubility, Phosphate buffer pH 7.5 [3]
CC[C@H](C)[C@@H](C(=O)N[C@@H](CC(C)C)C(=O)N[C@@H](CO)C(=O)N[C@@H](CO)C(=O)N[C@H](C(=O)N[C@@H](CC(=O)O)C(=O)N[C@H](C(=O)NCC(=O)N[C@@H](CO)C(=O)N[C@@H](CC(=O)O)C(=O)N[C@H](C(=O)N1CCC[C@H]1C(N)=O)[C@@H](C)O)C(C)C)[C@@H](C)O)N(C)C(=O)[C@H](C)NC(=O)CN(C)C(=O)[C@H](Cc1ccccc1)NC(=O)[C@H](CO)NC(=O)[C@H](CO)NC(=O)[C@H](CO)NC(=O)[C@H](CO)NC(=O)[C@H](CCCNC(=N)N)NC(=O)[C@H](Cc1c[nH]cn1)NC(=O)[C@H](CC(C)C)NC(=O)[C@H](Cc1ccccc1)NC(=O)[C@H](CCC(=O)O)NC(=O)[C@H](C)NC(=O)[C@H](CC(C)C)NC(=O)[C@H](CCCNC(=N)N)NC(=O)[C@H](CCC(=O)O)NC(=O)[C@@H](NC(=O)[C@H](C)NC(=O)[C@@H]1CSSC[C@H](NC(=O)[C@H](CCCNC(=N)N)NC(=O)CC[C@H](NC(=O)CCCCCCCCCCCCCCCCCCC(=O)O)C(=O)O)C(=O)N[C@@H](CC(N)=O)C(=O)N[C@@H]([C@@H](C)O)C(=O)N[C@@H](C)C(=O)N[C@@H]([C@@H](C)O)C(=O)N1)[C@@H](C)O [Compound 160, [19CD]-isoGlu-RC()NTATC()ATERLAEFLHRSSSSF-Gly(Me)-A-Ile(Me)-LSSTDVGSDTP-NH2] ({C20 diacid-γGlu}-RCNTATCATERLAEFLHRSSSSF[Sar]A[NMeI]LSSTDVGSDTP-NH2; disulfide 2-7) | 0.14 | 0.13 | SS (SS indicates solubility ≥ 1mg/ml) | SS (SS indicates solubility ≥ 1mg/ml) | SS (SS indicates solubility ≥ 1mg/ml) | SS (SS indicates solubility ≥ 1mg/ml) | SS (SS indicates solubility ≥ 1mg/ml) | SS (SS indicates solubility ≥ 1mg/ml) | SS (SS indicates solubility ≥ 1mg/ml)
CC[C@H](C)[C@@H](C(=O)N[C@@H](CC(C)C)C(=O)N[C@@H](CO)C(=O)N[C@@H](CO)C(=O)N[C@H](C(=O)N[C@@H](CCC(=O)O)C(=O)N[C@H](C(=O)NCC(=O)N[C@@H](CO)C(=O)N[C@@H](CCC(=O)O)C(=O)N[C@H](C(=O)N1CCC[C@H]1C(N)=O)[C@@H](C)O)C(C)C)[C@@H](C)O)N(C)C(=O)[C@H](C)NC(=O)CN(C)C(=O)[C@H](Cc1ccccc1)NC(=O)[C@H](CO)NC(=O)[C@H](CO)NC(=O)[C@H](CO)NC(=O)[C@H](CO)NC(=O)[C@H](CCCNC(=N)N)NC(=O)[C@H](Cc1c[nH]cn1)NC(=O)[C@H](CC(C)C)NC(=O)[C@H](Cc1ccccc1)NC(=O)[C@H](CCC(=O)O)NC(=O)[C@H](C)NC(=O)[C@H](CC(C)C)NC(=O)[C@H](CCCNC(=N)N)NC(=O)[C@H](CCC(=O)O)NC(=O)[C@@H](NC(=O)[C@H](C)NC(=O)[C@@H]1CSSC[C@H](NC(=O)[C@H](CCCNC(=N)N)NC(=O)CC[C@H](NC(=O)CCCCCCCCCCCCCCCCCCC(=O)O)C(=O)O)C(=O)N[C@@H](CC(N)=O)C(=O)N[C@@H]([C@@H](C)O)C(=O)N[C@@H](C)C(=O)N[C@@H]([C@@H](C)O)C(=O)N1)[C@@H](C)O [Compound 119, [19CD]-isoGlu-RC()NTATC()ATERLAEFLHRSSSSF-Gly(Me)-A-Ile(Me)-LSSTEVGSETP-NH2] ({C20 diacid-γGlu}-RCNTATCATERLAEFLHRSSSSF[Sar]A[NMeI]LSSTEVGSETP-NH2; disulfide 2-7) | 0.3 | 0.17 | SS (SS indicates solubility ≥ 1mg/ml) | SS (SS indicates solubility ≥ 1mg/ml) | SS (SS indicates solubility ≥ 1mg/ml) | SS (SS indicates solubility ≥ 1mg/ml) | SS (SS indicates solubility ≥ 1mg/ml) | SS (SS indicates solubility ≥ 1mg/ml) | SS (SS indicates solubility ≥ 1mg/ml)
